We go through two compounds from patent EP0640747B1, “Boiler system pH/phosphate program control method” (NALCO CHEMICAL COMPANY, priority 1993, dated 1995).

This series in a line: thermal stability of inert fluorescent tracers under boiler conditions. It is filed as physicochemical. To be noted: for thermally stable (substantially inert) for time: at 285 °C (545 °F); for thermally stable (substantially inert) at pressures up to: for time periods commensurate with commercial boiler holding times; for thermally stable (substantially inert) at temperatures up to: temperature limit, also printed as 1004 °F. The source says:
Among the substantially boiler-system-inert fluorescent compounds are the mono-, di- and trisulfonated naphthalenes, including their water-soluble salts, particularly the various naphthalene mono- and disulfonic acid isomers, which are a preferred inert tracer(s) for use in the present invention. The naphthalene mono- and disulfonic acid isomers are water-soluble, generally available commercially and easily detectable and quantifiable by known fluorescence analysis techniques. Preferred naphthalene mono- and disulfonic acid isomers are the water-soluble salts of naphthalene sulfonic acid ("NSA"), such as 2-NSA, and naphthalene disulfonic acid ("NDSA" or "NDA"), for instance 1,5-NDSA. Many of these inert tracer(s) (mono-, di- and trisulfonated naphthalenes and mixtures thereof) are extremely compatible with the environments of most boiler systems.

As for `O=S(=O)(O)c1cccc2c(S(=O)(=O)O)cccc12` [1,5-NDSA, 1,5-naphthalene disulfonic acid], the “thermally stable (substantially inert) for time” value was “at least 24 hours”, the “thermally stable (substantially inert) at pressures up to” value is reported as “about 1,500 psig” and the “thermally stable (substantially inert) at temperatures up to” value is “at least 540 °C”.

On to `O=S(=O)(O)c1ccc2ccccc2c1` [2-NSA, 2-naphthalene sulfonic acid], for which the “thermally stable (substantially inert) for time” value is reported as “at least 24 hours”, the “thermally stable (substantially inert) at pressures up to” value is “about 1,500 psig” and the “thermally stable (substantially inert) at temperatures up to” value was “at least 540 °C”.
